Values joined by “and” are separate entries in the source; they are usually repeats but may differ in a detail not shown here. Equal entries are not always repeated. Toxic doses and inconclusive results are not listed. Cut-off read from the data, not from the text of the source: active = T/C of 150% or more; inactive = T/C below 125%.
System: L1210 leukemia ip in BDF1 mice, survival T/C
Assay: NCI In Vivo Anticancer Drug Screen. Data for tumor model L1210 Leukemia (intraperitoneal) in B6D2F1 (BDF1) mice
Conditions: endpoint: mean survival time, higher = longer survival
Outline: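 Ratio derived from survival: compound-dosed mice over vehicle-dosed mice, all bearing a transplantable tumor.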

[1] = dose: 100.0 mg/kg/injection, schedule: Q04DX003 (ip), vehicle: saline
[2] = dose: 100.0 mg/kg/injection, schedule: Q01DX001 (ip), vehicle: Klucel (hydroxypropylcellulose) (HPC)
[3] = dose: 100.0 mg/kg/injection, schedule: Q01DX009 (ip), vehicle: Klucel (hydroxypropylcellulose) (HPC)
[4] = dose: 100.0 mg/kg/injection, schedule: Q04DX002 (ip), vehicle: Klucel (hydroxypropylcellulose) (HPC)
[5] = dose: 100.0 mg/kg/injection, schedule: Q04DX003 (ip), vehicle: Klucel (hydroxypropylcellulose) (HPC)
[6] = dose: 200.0 mg/kg/injection, schedule: Q01DX001 (ip), vehicle: Klucel (hydroxypropylcellulose) (HPC)
[7] = dose: 200.0 mg/kg/injection, schedule: Q01DX009 (ip), vehicle: Klucel (hydroxypropylcellulose) (HPC)
[8] = dose: 200.0 mg/kg/injection, schedule: Q04DX002 (ip), vehicle: Klucel (hydroxypropylcellulose) (HPC)
[9] = dose: 200.0 mg/kg/injection, schedule: Q04DX003 (ip), vehicle: Klucel (hydroxypropylcellulose) (HPC)
[10] = dose: 400.0 mg/kg/injection, schedule: Q01DX001 (ip), vehicle: Klucel (hydroxypropylcellulose) (HPC)
[11] = dose: 400.0 mg/kg/injection, schedule: Q01DX009 (ip), vehicle: Klucel (hydroxypropylcellulose) (HPC)
[12] = dose: 400.0 mg/kg/injection, schedule: Q04DX002 (ip), vehicle: Klucel (hydroxypropylcellulose) (HPC)
[13] = dose: 400.0 mg/kg/injection, schedule: Q04DX003 (ip), vehicle: Klucel (hydroxypropylcellulose) (HPC)
[14] = dose: 50.0 mg/kg/injection, schedule: Q01DX001 (ip), vehicle: saline
[15] = dose: 100.0 mg/kg/injection, schedule: Q01DX001 (ip), vehicle: saline
[16] = dose: 200.0 mg/kg/injection, schedule: Q01DX001 (ip), vehicle: saline
[17] = dose: 400.0 mg/kg/injection, schedule: Q01DX001 (ip), vehicle: saline

Measured: T/C

CNC(=O)c1ccc(NC(=O)Nc2ccc(C3=NCCCN3)cc2)cc1NC(=O)Nc1ccc(C2=NCCCN2)cc1
inactive: dose: 11.5 mg/kg/injection, schedule: Q01DX Z (ip), vehicle: carboxymethylcellulose (CMC) 108 % of control | dose: 23.0 mg/kg/injection, schedule: Q01DX Z (ip), vehicle: carboxymethylcellulose (CMC) 107 % of control | dose: 62.0 mg/kg/injection, schedule: Q01DX Z (oral), vehicle: carboxymethylcellulose (CMC) 111 % of control | dose: 125.0 mg/kg/injection, schedule: Q01DX Z (oral), vehicle: carboxymethylcellulose (CMC) 109 % of control | dose: 250.0 mg/kg/injection, schedule: Q01DX Z (oral), vehicle: carboxymethylcellulose (CMC) 108 % of control | dose: 500.0 mg/kg/injection, schedule: Q01DX Z (oral), vehicle: carboxymethylcellulose (CMC) 108 % of control
active: dose: 46.0 mg/kg/injection, schedule: Q01DX Z (ip), vehicle: carboxymethylcellulose (CMC) 166 % of control | dose: 92.0 mg/kg/injection, schedule: Q01DX Z (ip), vehicle: carboxymethylcellulose (CMC) 177 % of control

CCC(N)CC
inactive: dose: 75.0 mg/kg/injection, schedule: Q01DX009 (ip), vehicle: saline 104 % of control | [1] 105 % of control | dose: 150.0 mg/kg/injection, schedule: Q01DX009 (ip), vehicle: saline 96 % of control and 100 % of control | dose: 200.0 mg/kg/injection, schedule: Q04DX003 (ip), vehicle: saline 103 % of control

COc1ccc(C(O)c2cnc(C)n2Cc2ccccc2)cc1 (stereo not drawn)
inactive: [2] 93 % of control | [3] 101 % of control and 105 % of control | [4] 94 % of control and 98 % of control and 106 % of control | [5] 93 % of control | [6] 102 % of control | [7] 100 % of control and 101 % of control | [8] 92 % of control and 95 % of control and 88 % of control | [9] 93 % of control | [10] 97 % of control | [11] 96 % of control and 90 % of control | [12] 95 % of control and 98 % of control and 91 % of control | [13] 95 % of control

O=C(CCc1cccnc1)Nc1ccccc1
inactive: [5] 102 % of control | [9] 100 % of control | [13] 94 % of control

CCCCCCCC(=O)N(C)OC
inactive: [3] 97 % of control | [5] 89 % of control | [9] 94 % of control | [11] 100 % of control | [13] 92 % of control

O=C(NNC(=O)c1cccc([N+](=O)[O-])c1)C(=O)NNC(=O)c1cccc([N+](=O)[O-])c1
inactive: [3] 100 % of control | [7] 110 % of control | [11] 105 % of control

CCOC(=O)N1C(=O)NC(=O)C1c1ccc(OC)cc1 (stereo not drawn)
inactive: [14] 91 % of control | [15] 97 % of control | [16] 100 % of control | [17] 102 % of control

O=S(=O)(O)c1cc(I)c(O)c2ncccc12
inactive: [4] 102 % of control | [8] 95 % of control | [12] 95 % of control

CC1=CC2(C)CCC(=O)C(Cc3c(CCCC4(C)OCCO4)noc3C)=C2CC1 (stereo not drawn)
inactive: [5] 95 % of control | [9] 95 % of control | [13] 91 % of control

CCCCNC(=O)c1cccc2c1-c1ccccc1C2=O
inactive: dose: 100.0 mg/kg/injection, schedule: Q01DX001 (ip), vehicle: other 88 % of control | dose: 200.0 mg/kg/injection, schedule: Q01DX001 (ip), vehicle: other 88 % of control | dose: 400.0 mg/kg/injection, schedule: Q01DX001 (ip), vehicle: other 96 % of control

C[N+]1=C2CCCCCC2=C(N)CC1
inactive: dose: 6.25 mg/kg/injection, schedule: Q01DX009 (ip), vehicle: saline 104 % of control | dose: 12.5 mg/kg/injection, schedule: Q01DX009 (ip), vehicle: saline 100 % of control | dose: 25.0 mg/kg/injection, schedule: Q01DX009 (ip), vehicle: saline 100 % of control

O=C(O)CCS
inactive: [14] 98 % of control

Cc1ccc2[nH]c(C)cc(=O)c2c1
inactive: dose: 2.5 mg/kg/injection, schedule: Q01DX009 (ip), vehicle: saline 109 % of control | dose: 5.0 mg/kg/injection, schedule: Q01DX009 (ip), vehicle: saline 95 % of control | dose: 10.0 mg/kg/injection, schedule: Q01DX001 (ip), vehicle: saline 104 % of control | dose: 10.0 mg/kg/injection, schedule: Q01DX009 (ip), vehicle: saline 106 % of control | dose: 20.0 mg/kg/injection, schedule: Q01DX001 (ip), vehicle: saline 101 % of control | dose: 40.0 mg/kg/injection, schedule: Q01DX001 (ip), vehicle: saline 98 % of control

C=CC(=O)Nc1cccc(OC(=O)NC)c1
inactive: dose: 100.0 mg/kg/injection, schedule: Q01DX001 (ip), vehicle: saline with Tween-80 99 % of control | dose: 200.0 mg/kg/injection, schedule: Q01DX001 (ip), vehicle: saline with Tween-80 100 % of control | dose: 400.0 mg/kg/injection, schedule: Q01DX001 (ip), vehicle: saline with Tween-80 92 % of control

O=C(O)C1C(C(=O)O)C2(Cl)C(Cl)=C(Cl)C1(Cl)C2(Cl)Cl.[Fe] (stereo not drawn)
inactive: dose: 25.0 mg/kg/injection, schedule: Q01DX009 (ip), vehicle: saline sonified 93 % of control | dose: 25.0 mg/kg/injection, schedule: Q04DX003 (ip), vehicle: saline 94 % of control | dose: 44.0 mg/kg/injection, schedule: Q01DX Z (ip), vehicle: carboxymethylcellulose (CMC) 92 % of control | dose: 50.0 mg/kg/injection, schedule: Q01DX001 (ip), vehicle: saline sonified 104 % of control | dose: 50.0 mg/kg/injection, schedule: Q01DX009 (ip), vehicle: saline sonified 93 % of control | dose: 50.0 mg/kg/injection, schedule: Q04DX003 (ip), vehicle: saline 95 % of control and 86 % of control | dose: 67.0 mg/kg/injection, schedule: Q01DX Z (ip), vehicle: carboxymethylcellulose (CMC) 91 % of control | dose: 100.0 mg/kg/injection, schedule: Q01DX001 (ip), vehicle: saline sonified 102 % of control | dose: 100.0 mg/kg/injection, schedule: Q01DX009 (ip), vehicle: saline sonified 93 % of control | [1] 103 % of control | dose: 200.0 mg/kg/injection, schedule: Q01DX001 (ip), vehicle: saline sonified 98 % of control

CC(=O)c1ccc(N2CCN(C)CC2)cc1
inactive: [14] 100 % of control | [15] 102 % of control

CCCCCCCCCCCCC/C=N\N=C(N)N
inactive: dose: 15.0 mg/kg/injection, schedule: Q01DX Z (ip), vehicle: saline 96 % of control | dose: 30.0 mg/kg/injection, schedule: Q01DX Z (ip), vehicle: saline 89 % of control | dose: 60.0 mg/kg/injection, schedule: Q01DX Z (ip), vehicle: saline 89 % of control | dose: 60.0 mg/kg/injection, schedule: Q01DX Z (oral), vehicle: saline 98 % of control | dose: 120.0 mg/kg/injection, schedule: Q01DX Z (ip), vehicle: saline 96 % of control | dose: 120.0 mg/kg/injection, schedule: Q01DX Z (oral), vehicle: saline 101 % of control | dose: 240.0 mg/kg/injection, schedule: Q01DX Z (oral), vehicle: saline 101 % of control | dose: 480.0 mg/kg/injection, schedule: Q01DX Z (oral), vehicle: saline 98 % of control

O=C(CCl)c1ccc(Oc2ccc(C(=O)CCl)cc2)cc1
inactive: [14] 100 % of control | [15] 97 % of control | [16] 97 % of control | [17] 105 % of control

O=C(COc1ccc(Cl)c(Cl)c1)NCc1ccc[n+](Cc2ccc(Cl)cc2S(=O)(=O)F)c1
inactive: dose: 100.0 mg/kg/injection, schedule: Q04DX003 (ip), vehicle: saline with Tween-80 100 % of control | dose: 200.0 mg/kg/injection, schedule: Q04DX003 (ip), vehicle: saline with Tween-80 106 % of control

CC1(C)CCO/C(=C\C(=O)N2Cc3cc4ccccc4nc3C2)N1
inactive: [2] 88 % of control | [6] 86 % of control | [10] 90 % of control

Cc1ccc(C(=O)O)cc1
inactive: dose: 100.0 mg/kg/injection, schedule: Q01DX009 (ip), vehicle: saline with Tween-80 90 % of control | dose: 200.0 mg/kg/injection, schedule: Q01DX009 (ip), vehicle: saline with Tween-80 88 % of control

Reference: PubChem BioAssay AID248 (DTP/NCI, 2004)
